Like-named read-outs stand apart in the source and are kept apart here. Where a SMILES comes first, the peptide text is derived from it. Where no end group is shown, it is not given here. [ ]: non-standard residue; d: D form. The star is where a group is joined. Hexanoyl = CCCCCC(=O)*; Aib = CC(C)(N)C(=O)O
What was measured:
[1] = Rat serum stability studies (remaining active peptide by DiscoveRx cAMP on CHO-VPAC2 cells); type: in vitro ADME
Protocol: Store the aliquot with aprotinin at 4° C. Store the aliquot without aprotinin at 37° C. […] […] Incubate in room temperature for 30 minutes. Remove the supernatant. […] Incubate on the shaker (300 rpm) for 1 hour. Proceed as normal with the DiscoveRx kit. Include cAMP standards in column 12. Determine EC50 values from the cAMP assay data.

human VPAC1 = target: T1, human VPAC1 (Homo sapiens, UniProt P32241); assay: Filter binding assay, membranes of cells transiently transfected with human VPAC1, 125I-labeled VIP tracer (Table 2); design: expressed in transfected cells
T1 sequence (P32241 31-457): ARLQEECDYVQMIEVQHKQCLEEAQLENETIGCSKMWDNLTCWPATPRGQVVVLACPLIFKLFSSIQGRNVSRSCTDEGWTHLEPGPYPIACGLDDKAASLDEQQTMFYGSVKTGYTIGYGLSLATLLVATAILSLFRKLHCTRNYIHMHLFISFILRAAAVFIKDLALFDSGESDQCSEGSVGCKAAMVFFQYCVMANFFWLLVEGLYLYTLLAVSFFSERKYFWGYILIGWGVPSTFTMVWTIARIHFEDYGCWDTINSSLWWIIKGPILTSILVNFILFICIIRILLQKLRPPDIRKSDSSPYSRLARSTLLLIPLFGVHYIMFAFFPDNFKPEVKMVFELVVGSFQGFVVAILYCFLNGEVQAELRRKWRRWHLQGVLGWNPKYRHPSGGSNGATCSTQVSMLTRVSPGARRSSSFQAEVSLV
Method in brief: (§1)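 Competition binding of agonists against radiotracer on receptor membranes (2.5 μg) in 25 mM HEPES pH 7.4 with 0.5% protease-free BSA, about 40000 cpm tracer, 1 hour with shaking. Bound tracer was separated by filtration on PEI-presoaked, BSA-blocked glass-fibre filters, washed and counted by scintillation.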

human VPAC2 [2] = target: T2, human VPAC2 (Homo sapiens, UniProt P41587); assay: Filter binding assay, membranes of stable VPAC2 cell line, 125I-labeled VIP tracer (Table 2)
T2 construct: expressed in transfected cells
T2 sequence (P41587 24-438): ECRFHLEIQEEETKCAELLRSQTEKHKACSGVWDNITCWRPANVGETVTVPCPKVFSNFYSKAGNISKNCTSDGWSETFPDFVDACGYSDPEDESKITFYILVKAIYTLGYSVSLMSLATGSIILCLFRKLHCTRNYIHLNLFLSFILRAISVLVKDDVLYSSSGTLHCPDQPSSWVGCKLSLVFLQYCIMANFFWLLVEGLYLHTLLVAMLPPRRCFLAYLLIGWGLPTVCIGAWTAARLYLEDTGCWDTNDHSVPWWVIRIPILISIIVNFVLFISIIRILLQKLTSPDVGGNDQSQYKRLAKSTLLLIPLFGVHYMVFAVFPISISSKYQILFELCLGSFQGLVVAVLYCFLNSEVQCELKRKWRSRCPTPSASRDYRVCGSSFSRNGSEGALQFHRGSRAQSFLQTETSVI
Method in brief: as §1

human VPAC2 [3] = target: T2, human VPAC2; assay: Alpha screen cAMP in vitro potency, human VPAC2 receptor; type: cell-based
Method in brief: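 This followed a 60 min stimulation of 50,000 enzyme-free-dissociated cells per point with acceptor beads in stimulation buffer.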

human PAC1 = target: T3, human PAC1 (Homo sapiens, UniProt P41586); assay: Filter binding assay, membranes of cells transiently transfected with human PAC1, 125I-labeled PACAP-27 tracer (Table 2); design: expressed in transfected cells
T3 sequence (P41586 21-468): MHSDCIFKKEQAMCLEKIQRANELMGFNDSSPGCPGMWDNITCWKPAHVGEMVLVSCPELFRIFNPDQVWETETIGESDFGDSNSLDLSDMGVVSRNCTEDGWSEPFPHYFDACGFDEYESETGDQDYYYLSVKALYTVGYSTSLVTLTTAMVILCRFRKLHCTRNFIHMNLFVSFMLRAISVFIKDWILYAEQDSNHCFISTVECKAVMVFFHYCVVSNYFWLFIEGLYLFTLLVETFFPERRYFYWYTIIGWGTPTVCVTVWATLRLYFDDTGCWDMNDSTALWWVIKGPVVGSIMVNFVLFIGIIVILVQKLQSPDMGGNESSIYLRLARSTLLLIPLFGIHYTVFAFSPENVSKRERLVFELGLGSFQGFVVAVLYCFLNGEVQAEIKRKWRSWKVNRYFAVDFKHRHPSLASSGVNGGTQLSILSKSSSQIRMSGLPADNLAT
Method in brief: as §1

[4] = read-out: Human VPAC1 Receptor Binding
[5] = read-out: Human VPAC2 Receptor Binding
[6] = cAMP generation, single result from two analyses performed in a single run, read-out: Human VPAC2 Receptor: Alpha Screen EC50
[7] = read-out: Human PAC1 Receptor Binding

Row | Compound | Rat Serum Stability (estimated purity in % after 18 hours) [1] | IC50 (human VPAC1; [4]) | IC50 (human VPAC2 [2]; [5]) | EC50 (human VPAC2 [3]; [6]) | IC50 (human PAC1; [7]) | also measured
1 | Hexanoyl-HSDIVFTDNYTRLRKQVAAKKYLQSIKNKRYGGPSSGAPPPS [Agonist P221] | 0.87% |  |  |  |  | 
2 | Hexanoyl-HSDAVFTDNYT[Aib]LR[Aib]QVAA[Aib]KYLQSIKNKRYGGPSSGAPPPS [Agonist P345] | 20.23% | > 3000 nM | 19.3 nM |  |  | 
3 | Hexanoyl-HSDAVFTDNYTRL[Aib]KQVAAKQYLQSIKNKRYGGPSSGAPPPS [Agonist P249] | 12.9% |  |  |  |  | 
4 | Hexanoyl-HSDAVFTDNYTRLRKQVAAKKYLQSTKNKRYGGPSSGAPPPS [Agonist P108] |  | 332 nM | 0.45 nM | 0.27 nM | 486 nM | 
5 | Hexanoyl-HSDA[dV]FTDNYTRLRKQVAAKKYLQSIKNKRYGGPSSGAPPPS [Agonist P210] | <0.91% | 395 nM | 0.68 nM |  |  | 
6 | Hexanoyl-HSDAVFTDNYTRLLAQLALQKYLQSIKNKRYGGPSSGAPPPS [Agonist P195] |  | > 3000 nM | 2.34 nM | 0.25 nM | 139 nM | 
7 | Hexanoyl-HSDAVFTDNYTRLRKQVAAKKYLQVIKNKRYGGPSSGAPPPS [Agonist P116] |  | 369 nM | 0.74 nM | 0.12 nM | 145 nM | 
8 | CCCCCC(=O)N[C@@H](Cc1c[nH]cn1)C(=O)N[C@@H](CO)C(=O)N[C@@H](CC(=O)O)C(=O)N[C@@H](C)C(=O)N[C@H](C(=O)N[C@@H](Cc1ccccc1)C(=O)N[C@H](C(=O)N[C@@H](CC(=O)O)C(=O)N[C@@H](CC(N)=O)C(=O)N[C@@H](Cc1ccc(O)cc1)C(=O)N[C@H](C(=O)N[C@@H](CCCNC(=N)N)C(=O)N[C@@H](CC(C)C)C(=O)N[C@@H](CCCNC(=N)N)C(=O)N[C@@H](CCCCN)C(=O)N[C@@H](CCC(N)=O)C(=O)N[C@H](C(=O)N[C@@H](C)C(=O)N[C@@H](C)C(=O)N[C@@H](CCCCN)C(=O)N[C@@H](CCCCN)C(=O)N[C@@H](Cc1ccc(O)cc1)C(=O)N[C@@H](CC(C)C)C(=O)N[C@@H](CCC(N)=O)C(=O)N[C@@H](CO)C(=O)N[C@H](C(=O)N[C@@H](CCCCN)C(=O)N[C@@H](CCC(N)=O)C(=O)N[C@@H](CCCCN)C(=O)NCC(=O)NCC(=O)N1CCC[C@H]1C(=O)N[C@@H](CO)C(=O)N[C@@H](CO)C(=O)NCC(=O)N[C@@H](C)C(=O)N1CCC[C@H]1C(=O)N1CCC[C@H]1C(=O)N1CCC[C@H]1C(=O)N[C@@H](CO)C(=O)O)[C@@H](C)CC)C(C)C)[C@@H](C)O)[C@@H](C)O)C(C)C [Agonist P270] (Hexanoyl-HSDAVFTDNYTRLRKQVAAKKYLQSIKQKGGPSSGAPPPS-OH; C-terminus assumed) |  | 110 nM | 0.15 nM | 0.13 nM | 436 nM | 
9 | CCCCCC(=O)N[C@@H](Cc1c[nH]cn1)C(=O)N[C@@H](CO)C(=O)N[C@@H](CC(=O)O)C(=O)N[C@@H](C)C(=O)N[C@H](C(=O)N[C@@H](Cc1ccccc1)C(=O)N[C@H](C(=O)N[C@@H](CC(=O)O)C(=O)N[C@@H](CC(N)=O)C(=O)N[C@@H](Cc1ccc(O)cc1)C(=O)N[C@H](C(=O)N[C@@H](CCCNC(=N)N)C(=O)N[C@@H](CC(C)C)C(=O)N[C@@H](CCCNC(=N)N)C(=O)N[C@@H](CCCCN)C(=O)N[C@@H](CCC(N)=O)C(=O)N[C@@H](CCSC)C(=O)N[C@@H](C)C(=O)N[C@@H](C)C(=O)N[C@@H](CCC(N)=O)C(=O)N[C@@H](CCCCN)C(=O)N[C@@H](Cc1ccc(O)cc1)C(=O)N[C@@H](CC(C)C)C(=O)N[C@@H](CC(N)=O)C(=O)N[C@@H](CCC(N)=O)C(=O)N[C@@H](CC(C)C)C(=O)N[C@@H](CCCCN)C(=O)N[C@@H](CCCCN)C(=O)NCC(=O)NCC(=O)N1CCC[C@H]1C(=O)N[C@@H](CO)C(=O)N[C@@H](CO)C(=O)NCC(=O)N[C@@H](C)C(=O)N1CCC[C@H]1C(=O)N1CCC[C@H]1C(=O)N1CCC[C@H]1C(=O)N[C@@H](CO)C(=O)O)[C@@H](C)O)[C@@H](C)O)C(C)C [Agonist P143] (Hexanoyl-HSDAVFTDNYTRLRKQMAAQKYLNQLKKGGPSSGAPPPS-OH; C-terminus assumed) |  | 605 nM | 0.5 nM | 0.1 nM | 1080 nM | 
10 | Hexanoyl-HSEAVFTDNYTRLRKQVAAKKYLQSIKNKRYGGPSSGAPPPS [Agonist P224] |  | 208 nM | 0.35 nM | 0.14 nM | 210 nM | 
11 | Hexanoyl-HSDAVFTDNYTRLRKQVAAKK[Aib]LQSIKNKRYGGPSSGAPPPS [Agonist P228] | <5.00% |  |  |  |  | 
12 | Hexanoyl-HSDAVFTDNYTRLRKQVAAKKYLQSLKNKRYGGPSSGAPPPS [Agonist P107] |  | 122 nM | 0.16 nM | 0.12 nM | 225 nM | 
13 | Hexanoyl-HSDAVFTDNYTRLRKQVAAKKYLQSVKNKRYGGPSSGAPPPS [Agonist P109] |  | 274 nM | 0.11 nM | 0.22 nM | 257 nM | 
14 | MHSDAVFTDNYTRLLAKLALQKYLQSIKNKRYGGPSSGAPPPS [Agonist P140] |  |  |  |  |  | EC50 (human VPAC2 [3]): 0.07 nM; IC50 (human PAC1): 485 nM; IC50 (human VPAC1): 1140 nM; IC50 (human VPAC2 [2]): 1.94 nM
15 | Hexanoyl-HSDAVFTDNYTRLRKQVAAKKYLQYIKNKRYGGPSSGAPPPS [Agonist P127] |  | 290 nM | 0.23 nM | 0.22 nM | 209 nM | 
16 | Hexanoyl-HSDLVFTDNYTRLRKQVAAKKYLQSIKNKRYGGPSSGAPPPS [Agonist P223] | 1.52% |  |  |  |  | 
17 | CCCCCC(=O)N[C@@H](Cc1c[nH]cn1)C(=O)N[C@@H](CO)C(=O)N[C@@H](CC(=O)O)C(=O)N[C@@H](C)C(=O)N[C@H](C(=O)N[C@@H](Cc1ccccc1)C(=O)N[C@H](C(=O)N[C@@H](CC(=O)O)C(=O)N[C@@H](CC(N)=O)C(=O)N[C@@H](Cc1ccc(O)cc1)C(=O)N[C@H](C(=O)N[C@@H](CCCNC(=N)N)C(=O)N[C@@H](CC(C)C)C(=O)N[C@@H](CCCNC(=N)N)C(=O)NC(C)(C)C(=O)N[C@@H](CCC(N)=O)C(=O)N[C@H](C(=O)N[C@@H](C)C(=O)N[C@@H](C)C(=O)NC(C)(C)C(=O)N[C@@H](CCCCN)C(=O)N[C@@H](Cc1ccc(O)cc1)C(=O)N[C@@H](CC(C)C)C(=O)N[C@@H](CCC(N)=O)C(=O)N[C@@H](CO)C(=O)N[C@H](C(=O)N[C@@H](CCCN)C(=O)N[C@@H](CCC(N)=O)C(=O)N[C@@H](CCCN)C(=O)NCC(=O)NCC(=O)N1CCC[C@H]1C(=O)N[C@@H](CO)C(=O)N[C@@H](CO)C(=O)NCC(=O)N[C@@H](C)C(=O)N1CCC[C@H]1C(=O)N1CCC[C@H]1C(=O)N1CCC[C@H]1C(=O)N[C@@H](CO)C(=O)O)[C@@H](C)CC)C(C)C)[C@@H](C)O)[C@@H](C)O)C(C)C [Agonist P356] | 45.17% |  |  |  |  | 
